ChEMBL document CHEMBL1129683, “Thermodynamic aspects of hydrophobicity and the blood-brain barrier permeability studied with a gel filtration chromatography” (J Med Chem, 1996)

Assay: Micelle/water partition coefficient (Pmic) of the compound was determined
Format: physicochemical
Details: buffer

Row | SMILES | Log Pmic
1 | NC(N)=S [THIOUREA] | 0.48
2 | COc1cccc2c1C(=O)c1c(O)c3c(c(O)c1C2=O)C[C@@](O)(C(=O)CO)C[C@@H]3O[C@H]1C[C@H](N)[C@H](O)[C@H](C)O1 [DOXORUBICIN] | 1.9
3 | NC(N)=O [UREA] | -0.12
4 | CC[C@]1(O)C[C@H]2CN(CCc3c([nH]c4ccccc34)[C@@](C(=O)OC)(c3cc4c(cc3OC)N(C=O)[C@H]3[C@@](O)(C(=O)OC)[C@H](OC(C)=O)[C@]5(CC)C=CCN6CC[C@]43[C@@H]65)C2)C1 [VINCRISTINE] | 2.48
5 | Cc1ncc([N+](=O)[O-])n1CCO [METRONIDAZOLE] | 0.54
6 | O=c1[nH]c(=O)n(C2CCCO2)cc1F (configuration not stated) [TEGAFUR] | 0.7
7 | O=c1[nH]cc(F)c(=O)[nH]1 [FLUOROURACIL] | 0.21
8 | NC=O [FORMAMIDE] | -0.35
9 | CNC(=O)c1cccnc1 [NICOTINYL METHYLAMIDE] | 0.39
10 | CN1CC(=O)NC1=N [CREATININE] | -0.3
11 | CCc1nc(N)nc(N)c1-c1ccc(Cl)cc1 [PYRIMETHAMINE] | 2.51
12 | Cc1cc(=O)n(-c2ccccc2)n1C [ANTIPYRINE] | 0.58
